Test results from patent US20220362219A1, “RETINA REGENERATION THROUGH EPIGENETICS MANIPULATION” (Baylor College of Medicine, priority 2019, published 2022).
Entries after “also recorded” stand apart in the source; their conditions may differ.

Key:
[1] = system: histone markers H3K27Ac and H3K9Me3 in the retina; experiment: Chromatin modification in the retina after intravitreal injection (antibody staining of histone markers); type: in vivo, mouse; conditions: FIG. 2
Text: The outer nuclear layers (ONL) and the inner nuclear layers (INL) of the respective retina are shown. Markers related to reduced levels of histone acetylation (H3K27Ac) and increased levels of histone […] are identified with corresponding antibodies.
Further evidence is provided that HATi are useful for chromatin modifications that lead to epigenomic manipulation, thereby leading to regeneration of retinal cells. […] Upon intravitreal injection of the compound SYC1127, there is reduction in the level of histone acetylation as expected, such as with H3K27Ac (an epigenetic modification to Histone H3 that is a mark that indicates the acetylation at the 27th lysine residue of the Histone H3 protein). At the same time, the level of chromatin-repressing histone markers, such as H3K9Me3, is increased.

Spata7 mutant retina = experiment: Intravitreal injection in Spata7 knockout retinal degeneration mouse model (H&E, immunohistochemistry); type: in vivo
Description: (§1) FIGS. 1A-1C concern an example of retinal regeneration in Spata7-mutated (KO) retinal cells. (1A) One example of a timeline for studies, where the examples of timepoints are post-natal day 14, 21, and 34, respectively. (1B) Hematoxylin and eosin (H&E) staining for Spata7 KO mice versus wild-type control. Eyes were injected with SYC1127 (treated) eye compared to PBS-injected control. (1C) Immunofluorescence staining for Cone-rod homeobox protein (CRX, a marker for photoreceptor cells and bipolar cells); Glial fibrillary acidic protein (GFAP, a marker for Müller glial cells); and RNA Binding Protein, MRNA Processing Factor (RBPMS, a marker for retinal ganglion cells (RGC)) in Spata7 KO-treated eye (treated with SYC1127) and control eye (treated with PBS).
(§2) H&E staining of all three neural layers of the retina is shown following intravitreal injection of SYC1127 in wild-type mice vs. Spata7 KO mutants.
Immunohistochemistry using antibodies that bind Sox9 or GFAP, both markers of Müller glial cells, is provided for SYC1127-treated Spata7 KO mutants vs. PBS controls.
In this present example, one example of a potent Histone Acetylation Transferase inhibitor (HATi), the compound SYC1127, is administered by intravitreal injection in a retinal degeneration mouse model having a knockout mutation in Spata7. An example of an injection regimen is provided in FIG. 1A, in which there are multiple intravitreal injections. […] To examine if these newly generated cells are indeed differentiated properly, immunohistochemistry (IHC) using antibodies against certain cell type-specific markers is performed. […] The number of regenerative cells is much higher than that of previously reported by others, making it useful for therapy.
Retinal regeneration is induced through epigenomics manipulation, in particular embodiments. […] As at least one type of retinal cells, retinal ganglion cells are induced following administration of SYC1127.

wild-type control retina = experiment: Intravitreal injection in wild-type control retina (H&E); type: in vivo
Description: as §1, §2
In this present example, one example of a potent Histone Acetylation Transferase inhibitor (HATi), the compound SYC1127, is administered by intravitreal injection in a retinal degeneration mouse model having a knockout mutation in Spata7. An example of an injection regimen is provided in FIG. 1A, in which there are multiple intravitreal injections. […]

c1cc(-c2ccc(-c3ncc(OCC4CCNCC4)nc3-c3ccc(-c4ccoc4)cc3)cc2)co1 [SYC1127, 2,3-bis(4-(furan-3-yl)phenyl)-5-(piperidin-4-ylmethoxy)pyrazine]
level of chromatin-repressing histone markers (H3K9Me3) [1]: increased
level of histone acetylation (H3K27Ac) [1]: reduction
migration of Müller glial cells (Spata7 mutant retina; Spata7 KO, IHC, FIG. 5): Migration of Müller glial cells from the INL to photoreceptor and retinal ganglion cell layers
number of Müller glial cells (Sox9 positive cells and GFAP staining) (Spata7 mutant retina; Spata7 KO, IHC, FIG. 5): Increase in the number of Müller glial cells
thickness of neuronal layers vs uninjected Spata7 mutant retina (Spata7 mutant retina; intravitreal injection, H&E, FIG. 1B): thickening of all three neuronal layers
cell proliferation in Spata7 mutant retina (Spata7 mutant retina; intravitreal injection, H&E, FIG. 1B / FIG. 3): extensive cell proliferation; also recorded: proliferation of all three neural layers of the retina
Müller glia cell activation (GFAP staining) (Spata7 mutant retina; intravitreal injection, IHC, FIG. 1C): massive elevated Müller glia cell activation
retinal ganglion cells (RBPMS staining) (Spata7 mutant retina; intravitreal injection, IHC, FIG. 1C / FIG. 4): multiple layers of cells that are positive for retinal ganglion cells (RGC) are observed; also recorded: increase of cells in the RGC layer
regeneration of retinal neurons in degenerating retina (Spata7 mutant retina; intravitreal injection, overall conclusion): complete regeneration of retinal neurons
toxicity of injection of the drug (wild-type control retina; FIG. 1B): not toxic
change in wild-type control retina (wild-type control retina; wild-type, FIG. 1B / FIG. 3): little change; also recorded: no changes are observed
